Source: patent US8921376B2, “Pyrrolopyridines useful as inhibitors of protein kinase” (Vertex Pharmaceuticals Incorporated, priority 2005, dated 2014)
pKi: −log10 of the molar value.

How the values were obtained:
Assay type in all cases: biochemical
JAK3 = target: T1, JAK3 (Homo sapiens, UniProt P52333); assay: JAK3 inhibition assay (33P incorporation into poly(Glu)4Tyr); conditions: enzyme inhibition, Table 5
T1 sequence (P52333 1-1124): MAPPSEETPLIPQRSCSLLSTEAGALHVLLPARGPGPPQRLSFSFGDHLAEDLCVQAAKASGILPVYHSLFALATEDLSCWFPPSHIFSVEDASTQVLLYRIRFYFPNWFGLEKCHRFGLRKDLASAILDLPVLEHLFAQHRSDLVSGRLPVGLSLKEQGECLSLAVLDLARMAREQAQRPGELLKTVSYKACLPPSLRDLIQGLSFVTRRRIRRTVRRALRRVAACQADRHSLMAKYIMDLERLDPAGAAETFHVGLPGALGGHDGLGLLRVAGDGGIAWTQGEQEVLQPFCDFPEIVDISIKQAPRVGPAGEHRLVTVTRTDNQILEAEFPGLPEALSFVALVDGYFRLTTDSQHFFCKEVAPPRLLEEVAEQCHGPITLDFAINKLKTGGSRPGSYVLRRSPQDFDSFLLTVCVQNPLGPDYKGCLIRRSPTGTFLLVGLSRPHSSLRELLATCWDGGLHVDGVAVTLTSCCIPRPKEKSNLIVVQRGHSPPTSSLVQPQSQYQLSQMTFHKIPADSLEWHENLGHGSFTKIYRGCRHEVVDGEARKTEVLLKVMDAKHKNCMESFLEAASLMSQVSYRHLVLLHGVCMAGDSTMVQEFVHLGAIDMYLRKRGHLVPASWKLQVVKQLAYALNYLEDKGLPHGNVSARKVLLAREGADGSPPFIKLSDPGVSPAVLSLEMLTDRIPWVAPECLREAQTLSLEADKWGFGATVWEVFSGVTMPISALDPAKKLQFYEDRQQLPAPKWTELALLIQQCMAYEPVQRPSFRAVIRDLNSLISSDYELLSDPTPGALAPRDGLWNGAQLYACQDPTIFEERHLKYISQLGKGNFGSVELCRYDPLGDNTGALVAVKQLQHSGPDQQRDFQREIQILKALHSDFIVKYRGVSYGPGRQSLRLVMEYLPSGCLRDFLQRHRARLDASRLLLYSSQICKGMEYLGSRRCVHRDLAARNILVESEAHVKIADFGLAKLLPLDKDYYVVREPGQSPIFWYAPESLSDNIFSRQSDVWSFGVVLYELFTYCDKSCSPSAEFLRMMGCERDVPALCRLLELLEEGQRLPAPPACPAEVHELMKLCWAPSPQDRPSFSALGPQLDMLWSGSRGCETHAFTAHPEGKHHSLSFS
Experimental: (§1) Compounds were screened for their ability to inhibit JAK using the assay shown below. Reactions were carried out in a kinase buffer containing 100 mM HEPES (pH 7.4), 1 mM DTT, 10 mM MgCl2, 25 mM NaCl, and 0.01% BSA.
(§2) Substrate concentrations in the assay were 5 μM ATP (200 μCi/μmole ATP) and 1 μM poly(Glu)4Tyr. Reactions were carried out at 25° C. and 1 nM JAK3.
(§3) To each well of a 96 well polycarbonate plate was added 1.5 μl of a candidate JAK3 inhibitor along with 50/1 of kinase buffer containing 2 μM poly(Glu)4Tyr and 10 μM ATP. This was then mixed and 50 μl of kinase buffer containing 2 nM JAK3 enzyme was added to start the reaction. After 20 minutes at room temperature (25 C), the reaction was stopped with 50 μl of 20% trichloroacetic acid (TCA) that also contained 0.4 mM ATP. The entire contents of each well were then transferred to a 96 well glass fiber filter plate using a TomTek Cell Harvester. After washing, 60 μl of scintillation fluid was added and ^33P incorporation detected on a Perkin Elmer TopCount.

ROCK I = ROCK I (Homo sapiens, UniProt Q13464); assay: ROCK-I inhibition assay (radioactive enzyme assay, MBP substrate); conditions: enzyme inhibition, Ki(app), Table 5
Chain of ROCK I (Q13464 whole entry): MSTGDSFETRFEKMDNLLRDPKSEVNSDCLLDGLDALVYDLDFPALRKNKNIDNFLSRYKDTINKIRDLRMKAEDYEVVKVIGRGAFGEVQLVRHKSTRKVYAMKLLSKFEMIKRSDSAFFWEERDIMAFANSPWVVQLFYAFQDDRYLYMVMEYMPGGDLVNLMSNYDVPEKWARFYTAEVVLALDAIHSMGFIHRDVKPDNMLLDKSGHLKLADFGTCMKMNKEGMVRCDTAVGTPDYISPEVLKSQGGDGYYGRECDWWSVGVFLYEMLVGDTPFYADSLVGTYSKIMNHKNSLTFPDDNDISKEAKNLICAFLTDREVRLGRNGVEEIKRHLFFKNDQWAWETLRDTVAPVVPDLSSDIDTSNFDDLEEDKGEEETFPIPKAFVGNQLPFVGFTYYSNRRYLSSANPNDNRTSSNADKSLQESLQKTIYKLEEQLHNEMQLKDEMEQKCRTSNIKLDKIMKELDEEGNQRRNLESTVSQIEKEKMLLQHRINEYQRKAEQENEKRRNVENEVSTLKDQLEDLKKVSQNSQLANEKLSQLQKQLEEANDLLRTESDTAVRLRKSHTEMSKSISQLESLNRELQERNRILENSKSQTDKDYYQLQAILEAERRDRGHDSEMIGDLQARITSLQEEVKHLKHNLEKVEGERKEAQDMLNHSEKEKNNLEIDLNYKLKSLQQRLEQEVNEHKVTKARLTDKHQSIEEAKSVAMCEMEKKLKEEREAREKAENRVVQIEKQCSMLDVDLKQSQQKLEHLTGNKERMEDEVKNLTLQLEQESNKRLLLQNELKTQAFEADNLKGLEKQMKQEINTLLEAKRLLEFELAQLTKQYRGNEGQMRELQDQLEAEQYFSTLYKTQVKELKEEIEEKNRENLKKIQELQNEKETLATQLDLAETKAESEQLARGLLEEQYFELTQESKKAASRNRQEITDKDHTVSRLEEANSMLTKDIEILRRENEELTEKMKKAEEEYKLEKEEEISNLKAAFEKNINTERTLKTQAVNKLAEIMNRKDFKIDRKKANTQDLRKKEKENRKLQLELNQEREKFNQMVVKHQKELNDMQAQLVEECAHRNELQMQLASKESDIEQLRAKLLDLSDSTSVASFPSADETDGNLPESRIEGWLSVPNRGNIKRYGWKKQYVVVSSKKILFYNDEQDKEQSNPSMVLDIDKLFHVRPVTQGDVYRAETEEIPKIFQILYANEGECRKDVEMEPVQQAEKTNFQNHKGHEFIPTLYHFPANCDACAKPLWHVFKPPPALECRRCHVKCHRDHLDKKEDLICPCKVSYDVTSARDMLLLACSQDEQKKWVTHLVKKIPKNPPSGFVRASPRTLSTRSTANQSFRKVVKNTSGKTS
Experimental: Compounds were screened for their ability to inhibit ROCK using a standard radioactive enzyme assay. Assays were carried out in a solution containing 100 mM HEPES (pH 7.5), 10 mM MgCl2, 25 mM NaCl, 2 mM DTT, and 1.5% DMSO. Final substrate concentrations in the assay were 13 μM [γ-^33P] ATP (25 mCi ^33P ATP/mmol ATP, Perkin Elmer, Cambridge, Mass./Sigma Chemicals, St Louis, Mo.) and 27 μM Myelin Basic Protein (MBP). Final enzyme concentration in the assay was 5 nM ROCK. Assays were carried out at room temperature. 1.5 μl of DMSO stock containing serial dilutions of the compound of the present invention (concentrations ranging from 10 μM to 2.6 nM) was placed in a 96 well plate. 50 μl of Solution 1 (100 mM HEPES (pH 7.5), 10 mM MgCl2, […]) was added to the plate. The reaction was initiated by addition of 50 μl of Solution 2 (100 mM HEPES (pH 7.5), 10 mM MgCl2, 4 mM DTT, […] and 10 nM ROCK). After 2 hours the reaction was quenched with 50 μL of 30% trichloroacetic acid (TCA, Fisher) containing 9 mM ATP. Transfer of 140 μL of the quenched reaction to a glass fiber filter plate (Corning, Cat. No. 3511) was followed by washing 3 times with 5% TCA. 50 μl of Optima Gold scintillation fluid (Perkin Elmer) was added and the plates were counted on a Top Count (Perkin Elmer). After removing mean background values for all of the data points the data was fit using Prism software to obtain a Ki(app).

JAK2 = JAK2 (Homo sapiens, UniProt O60674); assay: JAK2 inhibition assay (as Example 3 with JAK-2 enzyme); conditions: enzyme inhibition, Table 5
Chain of JAK2 (O60674 whole entry): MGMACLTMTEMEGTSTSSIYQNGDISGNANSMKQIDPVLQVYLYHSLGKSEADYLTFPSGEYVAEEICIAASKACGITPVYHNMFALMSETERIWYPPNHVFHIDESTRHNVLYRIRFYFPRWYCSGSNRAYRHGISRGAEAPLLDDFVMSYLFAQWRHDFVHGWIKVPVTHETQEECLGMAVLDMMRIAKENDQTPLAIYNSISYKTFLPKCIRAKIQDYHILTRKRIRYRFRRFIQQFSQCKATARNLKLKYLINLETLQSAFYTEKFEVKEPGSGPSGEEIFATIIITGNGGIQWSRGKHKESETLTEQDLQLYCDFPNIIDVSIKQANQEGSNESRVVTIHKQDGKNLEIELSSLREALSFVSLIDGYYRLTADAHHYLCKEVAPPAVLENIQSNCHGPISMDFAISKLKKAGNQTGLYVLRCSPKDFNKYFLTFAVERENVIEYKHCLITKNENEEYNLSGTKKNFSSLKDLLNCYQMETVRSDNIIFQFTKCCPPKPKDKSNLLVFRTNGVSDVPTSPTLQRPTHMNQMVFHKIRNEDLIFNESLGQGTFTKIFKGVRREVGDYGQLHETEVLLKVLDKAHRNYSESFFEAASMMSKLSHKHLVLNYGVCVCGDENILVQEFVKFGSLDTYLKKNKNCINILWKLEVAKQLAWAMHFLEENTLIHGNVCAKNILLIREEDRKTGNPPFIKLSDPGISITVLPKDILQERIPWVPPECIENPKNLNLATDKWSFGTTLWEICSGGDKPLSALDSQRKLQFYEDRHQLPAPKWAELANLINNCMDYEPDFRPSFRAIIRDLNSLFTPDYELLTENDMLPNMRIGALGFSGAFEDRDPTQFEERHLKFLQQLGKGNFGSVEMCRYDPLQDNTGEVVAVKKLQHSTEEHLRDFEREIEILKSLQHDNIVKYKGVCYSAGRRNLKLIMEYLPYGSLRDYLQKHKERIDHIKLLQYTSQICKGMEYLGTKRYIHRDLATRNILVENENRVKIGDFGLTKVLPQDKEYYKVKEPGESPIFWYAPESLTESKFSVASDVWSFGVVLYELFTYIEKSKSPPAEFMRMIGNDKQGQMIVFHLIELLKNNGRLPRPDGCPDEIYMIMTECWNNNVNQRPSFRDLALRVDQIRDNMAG
Experimental: as §1, §2, §3
The assays were as described above in Example 3 except that JAK-2 enzyme was used, the final poly(Glu)4Tyr concentration was 15 μM, and final ATP concentration was 12 μM.

Row | SMILES | pKi (JAK3) | pKi (ROCK I) | pKi (JAK2)
1 | CCC(CO)NC(=O)c1ccc(-c2ccnc3[nH]ccc23)s1 (racemic) [compound 14] | > 6.30 | > 6.30 | –
2 | COc1ccc(-c2ccnc3[nH]ccc23)cc1OC [compound 1, 4-(3,4-dimethoxyphenyl)-1H-pyrrolo[2,3-b]pyridine] | 5.30 to 6.30 | – | –
3 | O=C(N[C@H](CO)c1cccc(Cl)c1)c1cc(-c2ccnc3[nH]ccc23)c[nH]1 [compound 2] | 5.30 to 6.30 | – | –
4 | CS(=O)(=O)Nc1cccc(CC(=O)Nc2cc(-c3ccnc4[nH]ccc34)cs2)c1 [compound 3] | > 6.30 | > 6.30 | –
5 | O=C(c1ccc(-c2ccnc3[nH]ccc23)s1)N1CCNCC1 [compound 4] | > 6.30 | > 6.30 | –
6 | O=C(NCC1CCCO1)c1ccc(-c2ccnc3[nH]ccc23)s1 (stereo not drawn) [compound 6] | > 6.30 | > 6.30 | –
7 | CCCNC(=O)c1ccc(-c2ccnc3[nH]ccc23)s1 [compound 7] | > 6.30 | > 6.30 | –
8 | O=C(NCCO)c1ccc(-c2ccnc3[nH]ccc23)s1 [compound 8] | > 6.30 | > 6.30 | –
9 | COCCNC(=O)c1ccc(-c2ccnc3[nH]ccc23)s1 [compound 9] | > 6.30 | > 6.30 | –
10 | O=C(c1ccc(-c2ccnc3[nH]ccc23)s1)N1CCC[C@H]1CO [compound 10] | > 6.30 | > 6.30 | –
11 | O=C(c1ccc(-c2ccnc3[nH]ccc23)s1)N1CCC[C@@H]1CO [compound 11] | > 6.30 | > 6.30 | –
12 | COC[C@@H]1CCCN1C(=O)c1ccc(-c2ccnc3[nH]ccc23)s1 [compound 12] | 5.30 to 6.30 | 5.30 to 6.30 | –
13 | COC[C@H]1CCCN1C(=O)c1ccc(-c2ccnc3[nH]ccc23)s1 [compound 13] | > 6.30 | > 6.30 | –
14 | C[C@@H](CO)NC(=O)c1ccc(-c2ccnc3[nH]ccc23)s1 [compound 15] | > 6.30 | > 6.30 | –
15 | CC(C)C(CO)NC(=O)c1ccc(-c2ccnc3[nH]ccc23)s1 (stereo not drawn) [compound 16] | > 6.30 | > 6.30 | –
16 | CCC(CC)NC(=O)c1ccc(-c2ccnc3[nH]ccc23)s1 [compound 17] | > 6.30 | > 6.30 | –
17 | CC(=O)N1CCCN(c2cccc(-c3ccnc4[nH]ccc34)n2)CC1 [compound 18] | 5.30 to 6.30 | 5.30 to 6.30 | > 6.30
18 | N#CCC(=O)N1CCCN(c2cccc(-c3ccnc4[nH]ccc34)n2)CC1 [compound 19] | 5.30 to 6.30 | 5.30 to 6.30 | > 6.30

Row | SMILES | pKi (JAK3) | pKi (ROCK I) | pKi (JAK2)
19 | CC(C)CNc1cccc(-c2ccnc3[nH]ccc23)n1 [compound 20] | 5.30 to 6.30 | 5.30 to 6.30 | 5.30 to 6.30
20 | CC(=O)N(Cc1ccccc1)c1cc(-c2ccnc3[nH]ccc23)cs1 [compound 21] | > 6.30 | 5.30 to 6.30 | –
21 | CC(=O)N1[C@H](C)CN(c2cccc(-c3ccnc4[nH]ccc34)n2)C[C@@H]1C [compound 22] | > 6.30 | 5.30 to 6.30 | > 6.30
22 | COCC(=O)Nc1cc(-c2ccnc3[nH]ccc23)cs1 [compound 23] | 5.30 to 6.30 | > 6.30 | –
23 | c1cc(NC2CCCC2)nc(-c2ccnc3[nH]ccc23)c1 [compound 24, N-Cyclopentyl-6-(1H-pyrrolo[2,3-b]pyridin-4-yl)pyridin-2-amine] | 5.30 to 6.30 | – | 5.30 to 6.30
24 | CC1CCCN(c2cccc(-c3ccnc4[nH]ccc34)n2)C1 (stereo not drawn) [compound 25, 4-(6-(3-Methylpiperidin-1-yl)pyridin-2-yl)-1H-pyrrolo[2,3-b]pyridine] | 5.30 to 6.30 | > 6.30 | > 6.30
25 | CC(=O)N1CCN(c2cccc(-c3ccnc4[nH]ccc34)n2)CC1 [compound 26, 1-(4-(6-(1H-pyrrolo[2,3-b]pyridin-4-yl)pyridin-2-yl)piperazin-1-yl)ethanone] | 5.30 to 6.30 | 5.30 to 6.30 | 5.30 to 6.30
26 | C1=C(c2ccnc3[nH]ccc23)CCC1 [compound 27, 4-Cyclopentenyl-1H-pyrrolo[2,3b]pyridine] | > 6.30 | > 6.30 | > 6.30
27 | Clc1cnc2[nH]ccc2c1C1=CCCC1 [compound 28, 5-Chloro-4-cyclopentenyl-1H-pyrrolo[2,3b]pyridine] | > 6.30 | 5.30 to 6.30 | > 6.30
28 | Clc1cnc2[nH]ccc2c1C1=CCCCC1 [compound 29, 5-Chloro-4-cyclohexenyl-1H-pyrrolo[2,3b]pyridine] | > 6.30 | 5.30 to 6.30 | > 6.30
29 | C1=C(c2ccnc3[nH]ccc23)CCCC1 [compound 30, 4-Cyclohexenyl-1H-pyrrolo[2,3b]pyridine] | > 6.30 | > 6.30 | > 6.30
30 | CN(C)c1cccc(-c2ccnc3[nH]ccc23)c1 [compound 31, Dimethyl-[3-(1H-pyrrolo[2,3-b]pyridin-4-yl)-phenyl]-amine] | > 6.30 | > 6.30 | > 6.30
31 | Clc1cnc2[nH]ccc2c1-c1cccc(NC2CCCC2)n1 [compound 32, 6-(5-Chloro-1H-pyrrolo[2,3-b]pyridin-4-yl)-N-cyclopentylpyrdin-2-anine] | < 5.30 | 5.30 to 6.30 | 5.30 to 6.30
32 | Clc1ccccc1CNc1cccc(-c2ccnc3[nH]ccc23)n1 [compound 33, N-(2-Chlorobenzyl)-6-(1H-pyrrolo[2,3-b]pyridin-4-yl)pyridin-2-amine] | 5.30 to 6.30 | 5.30 to 6.30 | 5.30 to 6.30
33 | Clc1ccccc1CCNc1cccc(-c2ccnc3[nH]ccc23)n1 [compound 34, N-(2-Chlorophenethyl)-6-(1H-pyrrolo[2,3-b]pyridin-4-yl)pyridin-2-amine] | 5.30 to 6.30 | 5.30 to 6.30 | 5.30 to 6.30
34 | CN(CCO)c1cccc(-c2ccnc3[nH]ccc23)n1 [compound 35, 2-(N-(6-(1H-Pyrrolo[2,3-b]pyridin-4-yl)pyridin-2-yl)-N-methylamino)ethanol] | 5.30 to 6.30 | > 6.30 | 5.30 to 6.30
35 | c1cc(NCC2CCCO2)nc(-c2ccnc3[nH]ccc23)c1 (stereo not drawn) [compound 36, N-((tetrahydrofuran-2-yl)methyl)-6-(1H-pyrrolo[2,3-b]pyridin-4-yl)pyridin-2-amine] | 5.30 to 6.30 | 5.30 to 6.30 | 5.30 to 6.30
